For data set [1], the system named is coculture of keratinocytes and melanocytes. The data set can be described thus: Cytotoxicity on keratinocyte/melanocyte coculture, estimated by incorporation of leucine. The format is cell-based.
Data set [2] shares this test system. The data set can be described thus: Inhibitory activity on melanin synthesis (constitutive melanogenesis), ratio of thiouracil to leucine incorporation. The format is cell-based. The following applies: concentration for which 50% of the synthesis of the melanin is inhibited; thiouracil/leucine incorporation ratio relative to 100% for the control. The method, then:
This test is carried out on a coculture of keratinocytes and melanocytes.
For the test compound, the following were determined: • the cytotoxicity, by estimating the incorporation of leucine, • the inhibitory activity on melanin synthesis, by estimating the ratio of the incorporation of thiouracil to the incorporation of leucine, relative to 100% for the control (the control corresponds to the test performed without test compound). The IC50 (concentration for which 50% of the synthesis of the melanin is inhibited) values were determined.
The test was also carried out with arbutin and kojic acid, which are known depigmenting compounds.

The test system of data set [3] is pigmented reconstructed epidermis. The data set is described as follows: Test on pigmented reconstructed epidermis samples, melanin quantified by image analysis. The format is cell-based, human. The protocol: Compositions comprising 300 µM of compound 1 in DMSO were applied to samples of pigmented reconstructed epidermis (cf. EP 1 878 790). The control is DMSO. The melanin was quantified by image analysis on histological slices after staining with Fontana Masson dye. Each sample of coloured epidermis is photographed over its entire length using a camera connected to a microscope. The melanin is thresholded and the number of melanin pixels is measured in each field using automated image analysis software. A non-parametric statistical test is performed in order to determine the significance of the measurements (Mann-Whitney test).
The pigmented reconstructed epidermis standard study model was published by: Regnier M, Duval C, Galey JB, Philippe M, Lagrange A, Tuloup R, Schmidt R, Cellular and Molecular Biology, 1999, 45, 7, 969-980: "Keratinocyte-Melanocyte co-cultures and pigmented reconstructed human epidermis: models to study modulation of melanogenesis".

Each structure is given as a SMILES string.

On to `CCOC(=O)C(CC(C)C)NC(=O)C(CCO)Cc1ccc(O)cc1O` (stereo not shown), for which the Cytotoxicity on coculture entry in data set [1] is given as “Non-cytotoxic”. Moreover, the IC50 in data set [2] worked out at 100 µM.

Regarding `OC[C@H]1O[C@@H](Oc2ccc(O)cc2)[C@H](O)[C@@H](O)[C@@H]1O` [Arbutin, reference compound], in data set [1], the Cytotoxicity on coculture result is given as “Non-cytotoxic”. Also, the IC50 in data set [2] was over 500 µM.

With `CCOC(=O)C(Cc1ccccc1)NC(=O)C(CCO)Cc1ccc(O)cc1O` (stereo not shown), the Cytotoxicity on coculture entry in data set [1] is listed as “Non-cytotoxic”. In data set [2], the half-maximal inhibitory concentration (IC50) was found to be 0.15 µM.

`O=c1cc(CO)occ1O` [Kojic acid, reference compound]: the Cytotoxicity on coculture in data set [1] was 100 µM. Further, in data set [2], the IC50 was over 500 µM.

For `CCCCC(CC)CNC(=O)C(CCO)Cc1ccc(O)cc1O` (stereo not shown), in data set [1], the Cytotoxicity on coculture is on record as 50 µM. For the same compound, the half-inhibitory concentration (IC50) in data set [2] turned out to be 25.2 µM.

Turning to `CCOC(=O)[C@H](Cc1ccccc1)NC(=O)C(CCO)Cc1ccc(O)cc1O` (stereo partly shown) [Compound 1, ethyl N-[2-(2,4-dihydroxybenzyl)-4-hydroxybutanoyl]phenylalaninate], in data set [3] (300 µM, pValue < 0.05 (Ttest 0.0006 in table), Mann-Whitney test), the depigmenting activity entry is “Significant depigmenting activity”. In addition, the “Percentage (normalized)” value in data set [3] (topical application 300 uM in DMSO, melanin area normalized to DMSO 1/1000 control = 100) was 71.7. The Average area in data set [3] (topical application 300 uM in DMSO, melanin pixels by image analysis after Fontana Masson staining, DMSO 1/1000 control 368.5) is 264.2.

In general, IC50 refers to the concentration at which inhibition is half-maximal.

Source of the values: patent EP2861555B1, “PROCESS FOR DEPIGMENTING KERATIN MATERIALS USING NOVEL RESORCINOL-BASED COMPOUNDS” (L'Oréal, priority 2012, dated 2013).
